Test results reported in patent publication US20220079960A1, “USE OF P1P DERIVATIVES AS THERAPEUTIC AGENT FOR SEPSIS” (AXCESO BIOPHARMACO.,LTD., priority 2019, published 2022).
Like-named read-outs stand apart in the source and are kept apart here.

What was measured:
SIRT1 = assay: Expression of SIRT1 in macrophages, RT-PCR; assay type: cell-based; settings: Raw 264.7 macrophages; 0.01-1 μM; RT-PCR 24 hours later (FIG. 8)
Procedure: The macrophage cell line used in the experiment was Raw 264.7 cell line purchased from ATCC, and Dulbeco's Modified Eagle's Media high glucose (with 10% FBS, 0.5% P/S) was used as a medium for culturing macrophages. Macrophages were cultured in an incubator at 37° C., 5% CO2. Macrophages were treated with P1P or cP1P drug at concentrations of 0.01 μM, 0.1 μM, and 1 μM, respectively and then LPS of 100 ng/ml after 4 hours, and cultured for 24 hours. The change in SIRT1 protein was measured by RT-PCR.
Expression of SIRT1 protein is very important in the treatment of sepsis. When sepsis is induced, the synthesis and activity of SIRT1 protein is reduced. Macrophages were treated with P1P drugs during culture, and the expression level of SIRT1 protein was confirmed by RT-PCR 24 hours later.

Balb/c mice = assay: LPS sepsis mouse model: effect of drugs on survival rate; assay type: in vivo; settings: for Survival rate (%): drug 40 μg/mouse i.p. 5 minutes after LPS
Procedure: For the experiment of the survival rate of mice after LPS administration, 7-week-old Balb/c mice were purchased from Orient Bio and adapted to the laboratory. Then, LPS (Sigma) was dissolved in phosphate buffer solution (PBS) at a concentration of 400 μg/mouse, 200 μg/mouse, 170 μg/mouse, 150 μg/mouse, 125 μg/mouse, and 100 μg/mouse, and 100 uL of each was injected into the abdominal cavity of a mouse.
(§1) To this end, the LPS concentration was determined to be 150 μg/mouse, and the P1P drug was intraperitoneally injected at a concentration of 40 μg/mouse 5 and 60 minutes after intraperitoneal injection of LPS. The survival rate was measured by observation for 72 hours at 12 hour intervals. In another experiment, P1P drug was injected intraperitoneally at a concentration of 40 μg/mouse 1 hour after intraperitoneal injection of LPS of 125 μg/mouse to compare the survival rate of mice. In the same way, the survival rate was measured while changing the P1P concentration.
as §1, with “cP1P” for “P1P”, “mice.” for “mice. In the same way, the survival rate was measured while changing the P1P concentration.”
Soybean lecithin called Lipoid S-75 was used to prepare the liposome, and 20 mg of lecithin was dissolved in 1 mL of chloroform. P1P or cP1P was dissolved in 1 mL of chloroform/methanol (2:1, v/v) solvent in an amount of 2 mg, 1 mg or 0.5 mg, respectively, and mixed with the lecithin solution. A thin lipid film was made by removing the organic solvent from the mixed solution using nitrogen gas or a rotary evaporator. The thin lipid film was stored in a vacuum desiccator overnight to completely remove the organic solvent remaining on the film. 5 mL of a phosphate buffer solution was added to the thin lipid film and stirred for 30 minutes to prepare multilamellar vesicles (MLV, large liposomes). The prepared MLV particles were sonicated for 2 minutes in an ice bath to make small unilamellar vesicles (SUV) of 100 nm or less. This sonication process was repeated twice. Only the supernatant obtained by centrifugation of the prepared SUV at 12000 rpm for 5 minutes was used in the experiment. Liposomes containing P1P or cP1P drug (P1P-liposomes/cP1P-liposomes) were used in an experiment to increase the survival rate of mice using LPS. To this end, LPS of 170 μg/mouse, which is higher than the conventional LPS concentration (125-150 μg/mouse), was injected into the abdominal cavity of the mouse. P1P or cP1P drug was administered at 40 μg/mouse 5 minute after LPS administration, and 100 μl of P1P-liposomes and cP1P-liposomes (P1P and cP1P of about 40 μg/mouse) were injected into the abdominal cavity of the mouse, and the survival rate change was determined over time.
The effect of P1P to treat sepsis was tested under the same conditions as described in the experimental method. P1P of 40 μg/mouse was administered intraperitoneally and intravenously 5 minutes after intraperitoneal injection of LPS of 150 μg/mouse. […] When the P1P drug was administered 1 hour after LPS administration, the survival rate was about 40% for intraperitoneal injection and 20% for intravenous injection (FIG. 2b). These indicate that P1P effectively ameliorated sepsis induced after LPS treatment. Furthermore, P1P of 40 μg/mouse was administered by intraperitoneal injection 1 hour after intraperitoneal injection of 125 μg/mouse of LPS. […] In the case of 20 μg/mouse concentration, the survival rate was 80%, and in the case of 10 μg/mouse concentration, the survival rate was about 60% (FIG. 3b). It was confirmed that P1P increased the survival rate in a concentration-dependent manner. […]

TNF-α = assay: Inflammatory cytokine (TNF-α) secretion after LPS treatment in macrophages, ELISA; assay type: cell-based; settings: Mus musculus
Procedure: The macrophage cell line used in the experiment was Raw 264.7 cell line purchased from ATCC, and Dulbeco's Modified Eagle's Media high glucose (with 10% FBS, 0.5% P/S) was used as a medium for culturing macrophages. Macrophages were cultured at 37° C., 5% CO2 incubator. Macrophages were treated with P1P or cP1P drugs at concentrations of 0.02 μM, 0.1 uM, 0.5 μM and 1 μM, respectively and then LPS of 1 ng/ml after 6 hours, and cultured for 4 hours. And then changes of inflammatory cytokines (Tumor necrosis factor alpha, TNF-α) were measured by the manufacturer's method using ELISA (BD OPTEIAT™). As a comparison group, S1P was used at the same concentration and conditions.
To this end, macrophage cell lines were treated with LPS to increase inflammatory cytokines, and the efficacy of P1P and derivatives thereof on inflammatory cytokine secretion was evaluated. Macrophage cell lines were treated with P1P drug or cP1P drug, and 6 hours later, treated with LPS at a concentration of 500 ng/mL for 4 hours.

Solubility in water = assay type: physicochemical
[1] = tested on: Human umbilical vein endothelial cell (HUVEC); assay: Survival of human vascular endothelial cells under oxidative stress (H2O2), MTT assay; assay type: cell-based; settings: for cell viability compared with S1P: 500 μM hydrogen peroxide (FIG. 7)
Procedure: Human umbilical vein endothelial cell (HUVEC) used in the experiment was purchased from Promocell, and cultured in an incubator at 37° C., 5% CO2 using Endothelial Cell Growth Medium 2 as a culture medium. To confirm the efficacy of P1P drug in an oxidative stress environment, HUVEC cells were pretreated with P1P or cP1P at concentrations of 10 nM, 100 nM, and 1000 nM for 1 hour, and then exposed to oxidative stress by treatment with 500 μM hydrogen peroxide (H2O2) for 6 hours. The efficacy of the […] drug on the survival of HUVEC cells after 6 hours of exposure to oxidative stress was confirmed by MTT assay. As a comparison group, S1P was used at the same concentration and conditions.
In addition to causing inflammation, LPS promotes oxidative stress to promote vascular endothelial cell death. To analyze the effect of the present drugs, oxidative stress was induced in vascular endothelial cells by treatment with 500 μM of hydrogen peroxide.

[2] = tested on: Human umbilical vein endothelial cell (HUVEC); assay: Proliferation of human vascular endothelial cells, MTT assay; assay type: cell-based; settings: 10 nM, 100 nM and 1000 nM, 48 hours, compared with S1P (FIG. 6)
Procedure: Human umbilical vein endothelial cell (HUVEC) used in the experiment was purchased from Promocell, and cultured in an incubator at 37° C., 5% CO2 using Endothelial Cell Growth Medium 2 as a culture medium. To confirm the proliferation effect of P1P drug, HUVEC cells were treated with P1P or cP1P drug at concentrations of 10 nM, 100 nM and 1000 nM, respectively, and cultured for 48 hours. The cell proliferation rate was measured according to the manufacturer's method using MTT assay (Molecular Probes). As a comparison group, S1P was used at the same concentration and conditions.

[3] = S1P administered directly; cited from earlier work
[4] = LPS 125 μg/mouse i.p., drug 40 μg/mouse i.p. 1 hour after LPS (FIG. 3a, FIG. 4b)
[5] = LPS 150 μg/mouse i.p., drug 40 μg/mouse intraperitoneally 5 minutes after LPS (FIG. 2a, FIG. 4a)
[6] = RAW264.7, read-out: inhibitory efficacy on inflammatory cytokine (TNF-α) production

| SMILES | expression level of SIRT1 protein (SIRT1) | survival rate (Balb/c mice; [4]) | Survival rate (%) (Balb/c mice; LPS 150 μg/mouse i.p., 0 h) | Survival rate (%) (Balb/c mice; LPS 150 μg/mouse i.p., 12 h) | Survival rate (%) (Balb/c mice; LPS 150 μg/mouse i.p., 24 h) | Survival rate (%) (Balb/c mice; LPS 150 μg/mouse i.p., 48 h) | Survival rate (%) (Balb/c mice; LPS 150 μg/mouse i.p., 72 h) | survival rate (Balb/c mice; [5]) [%] | Survival rate (%) (Balb/c mice; LPS 170 μg/mouse i.p., 0 h) | Survival rate (%) (Balb/c mice; LPS 170 μg/mouse i.p., 12 h) | Survival rate (%) (Balb/c mice; LPS 170 μg/mouse i.p., 24 h) | Survival rate (%) (Balb/c mice; LPS 170 μg/mouse i.p., 36 h) | Survival rate (%) (Balb/c mice; LPS 170 μg/mouse i.p., 48 h) | Survival rate (%) (Balb/c mice; LPS 170 μg/mouse i.p., 72 h) | inhibition at 1 µM (TNF-α; [6]) [%] | solubility in water (Solubility in water) | cell viability compared with S1P [1] | efficacy on proliferation of vascular endothelial cells [2] | Survival rate (%) (Balb/c mice; LPS 150 μg/mouse i.p., 36 h) | other results |
| --- | --- | --- | --- | --- | --- | --- | --- | --- | --- | --- | --- | --- | --- | --- | --- | --- | --- | --- | --- | --- |
| CCCCCCCCCCCCCC[C@@H](O)[C@H](O)[C@H](N)COP(=O)(O)O (stereo in doubt) [P1P, Phytosphingosine-1-phosphate] | increased SIRT1 protein even at very low concentrations | 100% | 100 | 100 | 100 | 80 | 80 | ≥ 80 | 100 | 80 | 40 | 20 | 20 | 20 | 49 | poorly soluble in water | higher cell viability than S1P | higher than that of S1P |  | survival rate (Balb/c mice; LPS 125 μg/mouse, drug 10 μg/mouse 60 minutes after LPS (FIG. 3b)): about 60%; survival rate (Balb/c mice; LPS 125 μg/mouse, drug 20 μg/mouse 60 minutes after LPS (FIG. 3b)): 80%; survival of mice while varying drug concentration (Balb/c mice; LPS 125 μg/mouse, drug 40 μg/mouse 60 minutes after LPS, up to 72 hours (FIG. 3b)): all of them survived up to 72 hours; survival rate (Balb/c mice; LPS 150 μg/mouse i.p., drug 40 μg/mouse intravenously 5 minutes after LPS (FIG. 2a)): ≥ 80%; survival rate (Balb/c mice; LPS 150 μg/mouse i.p., drug by intraperitoneal injection 1 hour after LPS (FIG. 2b)): about 40%; survival rate (Balb/c mice; LPS 150 μg/mouse i.p., drug by intravenous injection 1 hour after LPS (FIG. 2b)): 20%; cell viability ([1]; 500 μM hydrogen peroxide, untreated control about 40%): ≥ 70% |
| CCCCCCCCc1ccc(CCC(N)(CO)CO)cc1 [FTY720, fingolimod, reference compound] |  |  | 100 | 100 | 40 | 20 | 20 |  |  |  |  |  |  |  |  |  |  |  | 20 |  |
| CCCCCCCCCCCCC/C=C/[C@@H](O)[C@@H](N)COP(=O)(O)O [S1P, sphingosine-1-phosphate, reference compound] |  |  | 100 | 100 |  | 40 | 40 |  |  |  |  |  |  |  |  |  |  |  | 40 | degradation rate in the blood [3]: high degradation rate in the blood; inhibition at 1 µM (TNF-α; RAW264.7, 1 μM, Raw 264.7 macrophages, drug 6 hours before LPS, LPS 4 hours, ELISA, read-out: inhibitory efficacy on inflammatory cytokine (TNF-α) production): 19% |
| CCCCCCCCCCCCCC[C@@H](O)[C@H]1OP(=O)(O)OC[C@@H]1N [cP1P, O-cyclic P1P] | increased SIRT1 protein even at very low concentrations | about 100% |  |  |  |  |  | ≥ 70 | 100 | 80 | 60 | 40 | 40 | 40 | 35 | poorly soluble in water | higher cell viability than S1P | higher than that of S1P |  |  |
